PubChem BioAssay AID1963959 (Molecular Pharmacology Branch, DTP, NCI, 2024)

Test system: T-47D spheroids with HUVEC/MSC, viability
Experiment: Anticancer human tumor T-47D cell line growth inhibition [PI3K];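 further: spheroids exposed to agents for seven days before reading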;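 on viability, T/C: percent of DMSO vehicle control luminescence so 100% = untreated growth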
Conditions: for viability, T/C: stronger effect = lower value
Method in brief: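 Multi-cell spheroids combine tumor cells with HUVEC and human MSCs, treated with targeted agents alone or with inavolisib, alpelisib, duvelisib or copanlisib. Concentrations fall in half-log steps from at or near clinical Cmax, or from 10 microM where Cmax is unknown; viability read-out.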

[1] = curve of first compound, second compound 0.0316 µM
[2] = curve of first compound, second compound 0.1 µM
[3] = curve of first compound, second compound 0.316 µM
[4] = curve of first compound, second compound 1 µM
[5] = curve of first compound, second compound 3.16 µM
[6] = curve of first compound, second compound 10 µM
[7] = second compound 0.0316 µM, first compound 0.0316 µM
[8] = second compound 0.0316 µM, first compound 0.1 µM
[9] = second compound 0.0316 µM, first compound 0.316 µM
[10] = second compound 0.0316 µM, first compound 1 µM
[11] = second compound 0.0316 µM, first compound 3.16 µM
[12] = second compound 0.0316 µM, first compound 10 µM
[13] = second compound 0.1 µM, first compound 0.0316 µM
[14] = second compound 0.1 µM, first compound 0.1 µM
[15] = second compound 0.1 µM, first compound 0.316 µM
[16] = second compound 0.1 µM, first compound 1 µM
[17] = second compound 0.1 µM, first compound 3.16 µM
[18] = second compound 0.1 µM, first compound 10 µM
[19] = second compound 0.316 µM, first compound 0.0316 µM
[20] = second compound 0.316 µM, first compound 0.1 µM
[21] = second compound 0.316 µM, first compound 0.316 µM
[22] = second compound 0.316 µM, first compound 1 µM
[23] = second compound 0.316 µM, first compound 3.16 µM
[24] = second compound 0.316 µM, first compound 10 µM
[25] = second compound 1 µM, first compound 0.0316 µM
[26] = second compound 1 µM, first compound 0.1 µM
[27] = second compound 1 µM, first compound 0.316 µM
[28] = second compound 1 µM, first compound 1 µM
[29] = second compound 1 µM, first compound 3.16 µM
[30] = second compound 1 µM, first compound 10 µM
[31] = second compound 3.16 µM, first compound 0.0316 µM
[32] = second compound 3.16 µM, first compound 0.1 µM
[33] = second compound 3.16 µM, first compound 0.316 µM
[34] = second compound 3.16 µM, first compound 1 µM
[35] = second compound 3.16 µM, first compound 3.16 µM
[36] = second compound 3.16 µM, first compound 10 µM
[37] = second compound 10 µM, first compound 0.0316 µM
[38] = second compound 10 µM, first compound 0.1 µM
[39] = second compound 10 µM, first compound 0.316 µM
[40] = second compound 10 µM, first compound 1 µM
[41] = second compound 10 µM, first compound 3.16 µM
[42] = second compound 10 µM, first compound 10 µM

SMILES: CCCS(=O)(=O)Nc1ccc(F)c(C(=O)c2c[nH]c3ncc(-c4ccc(Cl)cc4)cc23)c1F + CC(Nc1ncnc2nc[nH]c12)c1cc2cccc(Cl)c2c(=O)n1-c1ccccc1
- IC50 [1]: > 10 µM
- IC50 [2]: > 10 µM
- IC50 [3]: 8.46 µM
- IC50 [4]: > 10 µM
- IC50 [5]: 9.93 µM
- IC50 [6]: 9.51 µM
- viability, T/C [7]: 114%
- viability, T/C [8]: 98.7%
- viability, T/C [9]: 84.7%
- viability, T/C [10]: 98.4%
- viability, T/C [11]: 88.6%
- viability, T/C [12]: 53%
- viability, T/C [13]: 84.5%
- viability, T/C [14]: 96.1%
- viability, T/C [15]: 105%
- viability, T/C [16]: 84.8%
- viability, T/C [17]: 104%
- viability, T/C [18]: 52.1%
- viability, T/C [19]: 107%
- viability, T/C [20]: 87.7%
- viability, T/C [21]: 109%
- viability, T/C [22]: 83.8%
- viability, T/C [23]: 92%
- viability, T/C [24]: 42.9%
- viability, T/C [25]: 97.2%
- viability, T/C [26]: 106%
- viability, T/C [27]: 89.2%
- viability, T/C [28]: 112%
- viability, T/C [29]: 85.6%
- viability, T/C [30]: 50.3%
- viability, T/C [31]: 85.5%
- viability, T/C [32]: 104%
- viability, T/C [33]: 73.6%
- viability, T/C [34]: 84.8%
- viability, T/C [35]: 85.3%
- viability, T/C [36]: 49.8%
- viability, T/C [37]: 84.7%
- viability, T/C [38]: 82.8%
- viability, T/C [39]: 92.2%
- viability, T/C [40]: 72.7%
- viability, T/C [41]: 74.7%
- viability, T/C [42]: 48.2%

SMILES: CC1(C)CCC(Nc2ncc(C(F)(F)F)c(-c3c[nH]c4c(P(C)(C)=O)c(C#N)ccc34)n2)CN1 (centres undefined) + CC(Nc1ncnc2nc[nH]c12)c1cc2cccc(Cl)c2c(=O)n1-c1ccccc1
- IC50 [1]: > 10 µM
- IC50 [2]: > 10 µM
- IC50 [3]: > 10 µM
- IC50 [4]: > 10 µM
- IC50 [5]: > 10 µM
- IC50 [6]: 4.1 µM
- viability, T/C [7]: 73.3%
- viability, T/C [8]: 62.5%
- viability, T/C [9]: 67.2%
- viability, T/C [10]: 71.9%
- viability, T/C [11]: 76.9%
- viability, T/C [12]: 48.4%
- viability, T/C [13]: 72.9%
- viability, T/C [14]: 69.9%
- viability, T/C [15]: 69.7%
- viability, T/C [16]: 59.8%
- viability, T/C [17]: 78.2%
- viability, T/C [18]: 48.6%
- viability, T/C [19]: 60.4%
- viability, T/C [20]: 70.9%
- viability, T/C [21]: 66%
- viability, T/C [22]: 64.6%
- viability, T/C [23]: 75.5%
- viability, T/C [24]: 51%
- viability, T/C [25]: 62.2%
- viability, T/C [26]: 63.5%
- viability, T/C [27]: 69.6%
- viability, T/C [28]: 57.6%
- viability, T/C [29]: 64.2%
- viability, T/C [30]: 47.1%
- viability, T/C [31]: 57.5%
- viability, T/C [32]: 60.3%
- viability, T/C [33]: 66.4%
- viability, T/C [34]: 60%
- viability, T/C [35]: 66.8%
- viability, T/C [36]: 40.5%
- viability, T/C [37]: 47.4%
- viability, T/C [38]: 60.1%
- viability, T/C [39]: 64.6%
- viability, T/C [40]: 51.7%
- viability, T/C [41]: 57.2%
- viability, T/C [42]: 29%

SMILES: COc1c(OCCCN2CCOCC2)ccc2c3n(c(=NC(=O)c4cnc(N)nc4)nc12)CCN3
- viability, T/C (compound 0.01 µM): 99.1% [middle of 8 runs]
- viability, T/C (compound 0.0316 µM): 70.4% [middle of 8 runs]
- viability, T/C (compound 0.1 µM): 45.4% [middle of 8 runs]
- viability, T/C (compound 0.316 µM): 20.5% [middle of 8 runs]
- viability, T/C (compound 1 µM): 7.09% [middle of 8 runs]
- IC50 (compound alone, run of 04/25/2023): 86.9 nM [middle of 8 runs]

SMILES: C[C@@H](NC(=O)c1ncnc(N)c1Cl)c1ncc(C(=O)Nc2cc(C(F)(F)F)c(Cl)cn2)s1 + Cc1nc(NC(=O)N2CCCC2C(N)=O)sc1-c1ccnc(C(C)(C)C(F)(F)F)c1
- IC50 [1]: > 10 µM
- IC50 [2]: > 10 µM
- IC50 [3]: > 10 µM
- IC50 [4]: > 10 µM
- IC50 [5]: > 10 µM
- IC50 [6]: < 0.0316 µM
- viability, T/C [7]: 108%
- viability, T/C [8]: 99.6%
- viability, T/C [9]: 88.5%
- viability, T/C [10]: 87.2%
- viability, T/C [11]: 88%
- viability, T/C [12]: 102%
- viability, T/C [13]: 109%
- viability, T/C [14]: 80.1%
- viability, T/C [15]: 105%
- viability, T/C [16]: 80.6%
- viability, T/C [17]: 93%
- viability, T/C [18]: 99.5%
- viability, T/C [19]: 94.3%
- viability, T/C [20]: 99.5%
- viability, T/C [21]: 109%
- viability, T/C [22]: 86.8%
- viability, T/C [23]: 97.7%
- viability, T/C [24]: 97.3%
- viability, T/C [25]: 88%
- viability, T/C [26]: 86.7%
- viability, T/C [27]: 90.4%
- viability, T/C [28]: 91.4%
- viability, T/C [29]: 95.6%
- viability, T/C [30]: 100%
- viability, T/C [31]: 78%
- viability, T/C [32]: 69.3%
- viability, T/C [33]: 68.1%
- viability, T/C [34]: 64%
- viability, T/C [35]: 74%
- viability, T/C [36]: 73.2%
- viability, T/C [37]: 36.7%
- viability, T/C [38]: 37.1%
- viability, T/C [39]: 41.8%
- viability, T/C [40]: 36.7%
- viability, T/C [41]: 40%
- viability, T/C [42]: 46.6%

SMILES: CC(=O)c1c(C)c2cnc(Nc3ccc(N4CCNCC4)cn3)nc2n(C2CCCC2)c1=O + Cc1nc(NC(=O)N2CCCC2C(N)=O)sc1-c1ccnc(C(C)(C)C(F)(F)F)c1
- IC50 [1]: > 0.1 µM
- IC50 [2]: > 0.1 µM
- IC50 [3]: > 0.1 µM
- IC50 [4]: > 0.1 µM
- IC50 [5]: 0.0304 µM
- IC50 [6]: < 0.000316 µM
- viability, T/C (second compound 0.0316 µM, first compound 0.000316 µM): 109%
- viability, T/C (second compound 0.0316 µM, first compound 0.001 µM): 101%
- viability, T/C (second compound 0.0316 µM, first compound 0.00316 µM): 98.8%
- viability, T/C (second compound 0.0316 µM, first compound 0.01 µM): 98.4%
- viability, T/C [7]: 92.1%
- viability, T/C [8]: 89.2%
- viability, T/C (second compound 0.1 µM, first compound 0.000316 µM): 101%
- viability, T/C (second compound 0.1 µM, first compound 0.001 µM): 100%
- viability, T/C (second compound 0.1 µM, first compound 0.00316 µM): 95.8%
- viability, T/C (second compound 0.1 µM, first compound 0.01 µM): 107%
- viability, T/C [13]: 95.5%
- viability, T/C [14]: 83%
- viability, T/C (second compound 0.316 µM, first compound 0.000316 µM): 98.3%
- viability, T/C (second compound 0.316 µM, first compound 0.001 µM): 110%
- viability, T/C (second compound 0.316 µM, first compound 0.00316 µM): 88%
- viability, T/C (second compound 0.316 µM, first compound 0.01 µM): 99.5%
- viability, T/C [19]: 95.2%
- viability, T/C [20]: 75.3%
- viability, T/C (second compound 1 µM, first compound 0.000316 µM): 98.4%
- viability, T/C (second compound 1 µM, first compound 0.001 µM): 90.7%
- viability, T/C (second compound 1 µM, first compound 0.00316 µM): 85.9%
- viability, T/C (second compound 1 µM, first compound 0.01 µM): 82.7%
- viability, T/C [25]: 86.6%
- viability, T/C [26]: 61.8%
- viability, T/C (second compound 3.16 µM, first compound 0.000316 µM): 65.7%
- viability, T/C (second compound 3.16 µM, first compound 0.001 µM): 66.8%
- viability, T/C (second compound 3.16 µM, first compound 0.00316 µM): 69.3%
- viability, T/C (second compound 3.16 µM, first compound 0.01 µM): 64.2%
- viability, T/C [31]: 49.6%
- viability, T/C [32]: 42.6%
- viability, T/C (second compound 10 µM, first compound 0.000316 µM): 37.1%
- viability, T/C (second compound 10 µM, first compound 0.001 µM): 39.8%
- viability, T/C (second compound 10 µM, first compound 0.00316 µM): 35.1%
- viability, T/C (second compound 10 µM, first compound 0.01 µM): 31.3%
- viability, T/C [37]: 23.1%
- viability, T/C [38]: 29.3%
